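96-well plates; 48 h exposure; 5 concentrations. Endpoints by linear interpolation between flanking doses. Not reached: highest tested concentration assigned. Here, GI50 denotes the concentration required for 50% inhibition of growth.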 Calls of active or inactive are those of the source. No stated cut-off is given here; in the data, active = GI50 up to about 1.1 µM and inactive = higher.
What was measured:
Test in all cases: NCI-60 cell line screen, 48 h
A549 = system: A549
IGROV-1 = system: IGROV-1
RPMI-8226 = system: RPMI-8226
NCI-H226 = system: NCI-H226
MDA-MB-231 = system: MDA-MB-231
NCI/ADR-RES = system: NCI/ADR-RES
COLO 205 = system: COLO 205
MDA-N = system: MDA-N
SK-MEL-5 = system: SK-MEL-5
HOP-92 = system: HOP-92
SK-OV-3 = system: SK-OV-3
SK-MEL-2 = system: SK-MEL-2
NCI-H23 = system: NCI-H23
TK-10 = system: TK-10
OVCAR-5 = system: OVCAR-5
PC-3 = system: PC-3
SR = system: SR
OVCAR-8 = system: OVCAR-8
RXF 393 = system: RXF 393
LOX IMVI = system: LOX IMVI

Row | Compound | GI50 (A549) | GI50 (IGROV-1) | GI50 (RPMI-8226) | GI50 (NCI-H226) | GI50 (MDA-MB-231) | GI50 (NCI/ADR-RES) | GI50 (COLO 205) | GI50 (MDA-N) | GI50 (SK-MEL-5) | GI50 (HOP-92) | GI50 (SK-OV-3) | GI50 (SK-MEL-2) | GI50 (NCI-H23) | GI50 (TK-10) | GI50 (OVCAR-5) | GI50 (PC-3) | GI50 (SR) | GI50 (OVCAR-8) | GI50 (RXF 393) | GI50 (LOX IMVI)
1 | Clc1ccc(-c2noc(CN3CCCCC3)n2)cc1 | > 100 µM (inactive) | > 100 µM (inactive) | 43.9 µM (inactive) | > 100 µM (inactive) | > 100 µM (inactive) | 46.5 µM (inactive) | 90.2 µM (inactive) | > 100 µM (inactive) | 34 µM (inactive) | > 100 µM (inactive) | > 100 µM (inactive) | > 100 µM (inactive) | > 100 µM (inactive) | > 100 µM (inactive) | > 100 µM (inactive) | > 100 µM (inactive) | 63.1 µM (inactive) | > 100 µM (inactive) | 44 µM (inactive) | –
2 | O=C1/C(=C/c2ccc(O)cc2)CCc2ccc([N+](=O)[O-])cc21 | 45 µM (inactive) | 61.2 µM (inactive) | 2.07 µM (inactive) | 28.7 µM (inactive) | > 100 µM (inactive) | 73.5 µM (inactive) | > 100 µM (inactive) | > 100 µM (inactive) | > 81.8 µM (inactive) | 29.1 µM (inactive) | > 84.7 µM (inactive) | 66.5 µM (inactive) | 36.1 µM (inactive) | 45.2 µM (inactive) | > 51.5 µM (inactive) | > 100 µM (inactive) | 1.63 µM (inactive) | > 100 µM (inactive) | 33.3 µM (inactive) | > 100 µM (inactive)
3 | Cc1ccccc1NC(=O)CC(=O)NNC(Sc1ccccc1)c1cc(/N=N/c2ccc(Br)cc2)ccc1O (configuration not stated) | 3.42 µM (inactive) | 8.02 µM (inactive) | 1.7 µM (inactive) | 2.04 µM (inactive) | 1.14 µM (inactive) | 1.71 µM (inactive) | 3.1 µM (inactive) | 3.14 µM (inactive) | 1.24 µM (inactive) | 5.97 µM (inactive) | 5.26 µM (inactive) | 5.93 µM (inactive) | 3.08 µM (inactive) | 1.39 µM (inactive) | 7.59 µM (inactive) | 0.877 µM (active) | 0.37 µM (active) | 0.552 µM (active) | 2.13 µM (inactive) | 1.49 µM (inactive)
4 | CC1CCCCN1CC(=O)c1ccc2c(c1)Sc1ccccc1O2 (configuration not stated) | 14.6 µM (inactive) | 6.49 µM (inactive) | > 100 µM (inactive) | 12.9 µM (inactive) | 24.7 µM (inactive) | 16.7 µM (inactive) | 24 µM (inactive) | 15.2 µM (inactive) | – | 13.2 µM (inactive) | 16.4 µM (inactive) | 17.9 µM (inactive) | 15.2 µM (inactive) | 18.7 µM (inactive) | 18.1 µM (inactive) | 11.8 µM (inactive) | 15.3 µM (inactive) | 15 µM (inactive) | 13.8 µM (inactive) | 9.93 µM (inactive)
5 | CCCCCCOc1ccc(NC2=C(Cl)C(=O)c3c(O)ccc(O)c3C2=O)cc1 | 3.27 µM (inactive) | – | 1.4 µM (inactive) | 3.88 µM (inactive) | 1.86 µM (inactive) | 2.55 µM (inactive) | 1.78 µM (inactive) | 2.99 µM (inactive) | 1.31 µM (inactive) | 2.72 µM (inactive) | > 10 µM (inactive) | 2.96 µM (inactive) | 2.4 µM (inactive) | 6.32 µM (inactive) | > 10 µM (inactive) | 3.09 µM (inactive) | 1.94 µM (inactive) | 2.09 µM (inactive) | 2.32 µM (inactive) | 1.67 µM (inactive)
6 | Clc1ccc2oc(CCc3ccccc3)nc2c1 | 36.6 µM (inactive) | 51.3 µM (inactive) | 46.1 µM (inactive) | 32.6 µM (inactive) | > 100 µM (inactive) | 40.8 µM (inactive) | 41.7 µM (inactive) | 50.1 µM (inactive) | 20.3 µM (inactive) | 49.4 µM (inactive) | 47.2 µM (inactive) | 30.6 µM (inactive) | 45.8 µM (inactive) | 69.7 µM (inactive) | 83.2 µM (inactive) | 48.6 µM (inactive) | 57.3 µM (inactive) | 78.9 µM (inactive) | 24.9 µM (inactive) | > 100 µM (inactive)
7 | O=C1c2c(Br)sc(Br)c2[C@@H](O)[C@H]1O | 20.9 µM (inactive) | 18.2 µM (inactive) | 21.7 µM (inactive) | 17.6 µM (inactive) | 16.6 µM (inactive) | 22.4 µM (inactive) | 14.3 µM (inactive) | 16.3 µM (inactive) | 18.4 µM (inactive) | 19.2 µM (inactive) | 15.6 µM (inactive) | 17.1 µM (inactive) | 7.21 µM (inactive) | 53.7 µM (inactive) | 19.9 µM (inactive) | 17.5 µM (inactive) | 1.96 µM (inactive) | 14.1 µM (inactive) | 16.2 µM (inactive) | 7.13 µM (inactive)
8 | COc1ccc(NC(=O)CC(=O)n2nc(C)c(/N=N/c3ccc(C)c(C)c3)c2C)cc1 | > 100 µM (inactive) | 29.4 µM (inactive) | > 100 µM (inactive) | 51.3 µM (inactive) | > 100 µM (inactive) | > 100 µM (inactive) | > 100 µM (inactive) | > 100 µM (inactive) | > 100 µM (inactive) | 16 µM (inactive) | 10.8 µM (inactive) | > 100 µM (inactive) | 71.4 µM (inactive) | 55.1 µM (inactive) | > 100 µM (inactive) | > 100 µM (inactive) | 43.3 µM (inactive) | 29.7 µM (inactive) | 32.4 µM (inactive) | 50.5 µM (inactive)
9 | O=C(O)CCNc1[nH]cnc2ncnc1-2 | > 100 µM (inactive) | > 100 µM (inactive) | > 100 µM (inactive) | > 100 µM (inactive) | > 100 µM (inactive) | > 100 µM (inactive) | > 100 µM (inactive) | > 100 µM (inactive) | > 100 µM (inactive) | > 100 µM (inactive) | > 100 µM (inactive) | > 100 µM (inactive) | > 100 µM (inactive) | > 100 µM (inactive) | > 100 µM (inactive) | > 100 µM (inactive) | > 100 µM (inactive) | > 100 µM (inactive) | > 100 µM (inactive) | > 100 µM (inactive)
10 | COc1cc(/C=C(\C#N)C(N)=C(C#N)C#N)cc(O)c1O | > 100 µM (inactive) | > 66.8 µM (inactive) | > 100 µM (inactive) | > 63.5 µM (inactive) | > 100 µM (inactive) | > 100 µM (inactive) | > 100 µM (inactive) | 68.2 µM (inactive) | > 100 µM (inactive) | > 68.4 µM (inactive) | > 100 µM (inactive) | > 100 µM (inactive) | > 100 µM (inactive) | > 100 µM (inactive) | > 100 µM (inactive) | > 100 µM (inactive) | 35.1 µM (inactive) | 91.2 µM (inactive) | > 100 µM (inactive) | > 61.4 µM (inactive)

Source: ChEMBL document CHEMBL1201862, “PubChem BioAssay data set” (2004)
